Tests used:
[1] = tested on: Kasumi-1 cells; test: Kasumi-1 cell inhibitory activity (CellTiter-Glo, 5 days); type: cell-based; settings: Homo sapiens, 120 h, 5 days incubation, CellTiter-Glo luminescence
Method: Test compounds were dissolved in DMSO to prep are a 250×final concentration solution. The initial concentration was 10 µM with 3-fold dilution, resulting in a total of ten concentration points. 4 µL of the compound solution was added to 96 µL of cell culture medium to dilute it to 10×the final concentration. On the first day, Kasumi-1 cells (purchased from Precedo) were suspended in cell culture medium at the desired density, 90 µL of the cell suspension was added to a 96-well plate, and 10 µL of 10×compound solution was added for incubation, with a final DMSO concentration of 0.4% in each well. Incubated at 37 °C, 5% CO2 for 5 days. Before measurement after 5 days, the test plate was placed at room temperature, 50 µL of CellTiter-Glo® reagent (purchased from Promega, Cat. No. G7573) was added, mixed on a shaker for 2 minutes to lyse the cells, and incubated at room temperature for 10 minutes to stabilize the […] signal. Luminescence values were recorded using Paradigm, and the response-concentration curve was fitted with Graphpad Pr ism 8.0 to calculate IC50values. The results of each compound are shown in Table2, where A indicates <100nM, B indicates 100-1000nM, and C indicates >1000nM. [formula]

[2] = target: T1, METTL3/14 (Homo sapiens, UniProt Q86U44); test: METTL3/14 methyltransferase activity assay (HTRF); type: biochemical; settings: 10 concentrations, 3-fold dilution from 10 µM
T1 construct: purchased active motif 31570
Method: The final initial concentration of the compound was 10 µM, with 3-fold serial dilution to give a total of 10 concentrations. 100 nL of the compound was transferred to a 384-well plate and centrifuged at 1000 RPM. 2.5 µL of METTL3/14 (active motif, Cat No. 31570) was added to the test wells and incubated at 25°C for 10 min. 2.5 µL of METTL3-Biotin & SAM (GenScript) was added to the test wells andincubated at 25°C for 60 min. 2.5 µL of YTHDF1 (active motif, Cat No. 31608) was added to the test wells and centrifuged at 1000 RPM. 2.5 µL of Streptavidin-Tb (Perkin Elmer Cat No. 61SATLB) & Flag-mede (Perkin Elmer Cat No. 61FG2DLA) was added to the test wells and centrifuged at 1000 RPM. Incubated at 25°C for 60 min. HTRF was measured using a Plate reader. The results of each compound are shown in Table 1, where A+indicates <10nM, A indicates 10-100nM, B indicates 100-1000nM, and C indicates >1000nM.

[3] = Rat pharmacokinetic test, intravenous injection; type: in vivo; settings: male, SD, plasma, rats, 2 mg/kg, average of 3 rats
Method: 3.1 Experimental Animals: Male SD rats, weighing 190-230 g, 3 rats per compound 3.2 Experimental Design: All animals were fasted overnight (10-14 hours) the day before admin istration and fed 4 hours after admin istration. For intravenous injection, the drug vehicle was 5% DMA + 5% Solutol + 90% Saline (DMA: dimethylacetamide; Solutol: polyethyleneglycol-15-hydroxystearate; Saline: normal saline), with a dosage of 2 mg/kg and an admin istration concentration of 1 mg/mL. Blood samples were collected via the jugular vein at 5 min, 15 min, 30 min, 1 h, 2 h, 4 h, 6 h, 8 h, and 24 h after admin istration. Approximately 0.25 mL of each sample was collected, anticoagulated with EDTA-K2, placed on ice after collection, and centrifuged to separate plasma within 1 hour (6000 g, 3 min, 2-8°C). Plasma samples were stored in a - 80°Crefrigerator before analys is.
3.3 Result Analys is:Collected samples were detected using LC-MS/MS method. Pharmacokinetic parameters were calculated from blood drug concentration data at different time points using Phoenix WinNonlin 8.2.0 to obtain the average values of in vivo clearance (CL) and AUC0-t. Table 3 CL and AUC of test compounds after intravenous injection in rats

T1 sequence (Q86U44 whole entry): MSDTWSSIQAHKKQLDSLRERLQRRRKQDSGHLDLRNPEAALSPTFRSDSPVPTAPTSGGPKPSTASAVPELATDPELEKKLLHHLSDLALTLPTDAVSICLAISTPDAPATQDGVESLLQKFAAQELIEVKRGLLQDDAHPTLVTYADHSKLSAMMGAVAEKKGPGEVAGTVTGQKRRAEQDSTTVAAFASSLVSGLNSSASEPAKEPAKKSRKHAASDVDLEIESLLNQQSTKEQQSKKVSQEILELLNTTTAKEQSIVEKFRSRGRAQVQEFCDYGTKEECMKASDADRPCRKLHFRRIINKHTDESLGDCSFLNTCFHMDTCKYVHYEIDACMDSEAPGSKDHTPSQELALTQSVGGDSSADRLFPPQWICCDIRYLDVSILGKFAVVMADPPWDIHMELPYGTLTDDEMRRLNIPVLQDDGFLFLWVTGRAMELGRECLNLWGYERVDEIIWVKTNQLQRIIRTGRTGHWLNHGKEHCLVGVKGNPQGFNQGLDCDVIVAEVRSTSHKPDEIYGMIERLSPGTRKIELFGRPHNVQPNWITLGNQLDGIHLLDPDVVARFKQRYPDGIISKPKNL
T1 sequence (Q9HCE5 whole entry partner): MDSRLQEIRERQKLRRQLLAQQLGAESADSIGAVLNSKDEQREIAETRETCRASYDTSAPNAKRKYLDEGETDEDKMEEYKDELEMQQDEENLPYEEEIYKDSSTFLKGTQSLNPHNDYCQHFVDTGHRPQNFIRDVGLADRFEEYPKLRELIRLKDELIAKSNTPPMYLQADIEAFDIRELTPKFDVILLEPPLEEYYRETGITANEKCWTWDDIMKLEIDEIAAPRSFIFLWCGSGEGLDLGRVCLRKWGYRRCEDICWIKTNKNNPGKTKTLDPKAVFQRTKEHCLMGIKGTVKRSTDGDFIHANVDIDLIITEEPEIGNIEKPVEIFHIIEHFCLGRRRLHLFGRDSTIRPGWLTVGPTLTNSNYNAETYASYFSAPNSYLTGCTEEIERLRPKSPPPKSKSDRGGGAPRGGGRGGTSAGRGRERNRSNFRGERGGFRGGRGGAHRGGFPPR

SMILES | IC50 [1] [nM] | IC50 [2] [nM] | AUC(0-t) [3] [ng·h/mL] | clearance [3] [mL/min/kg]
[2H]C([2H])(NCc1cc2cc(F)c(CNC(=O)c3cc(=O)n4cc5c(cc4n3)OCO5)cc2[nH]1)C12CC(F)(C1)C2 [Example 89, N-((5-Fluoro-2-((((3-fluorobicyclo[1.1.1]pentan-1-yl)methyl-d2)amino)methyl)-1H-indol-6-yl)methyl)-8-oxo-8H-[1,3]dioxolo[2',3':4,5]pyrido[1,2-a]pyrimidine-6-carboxamide] | < 100 | < 10 | 1210 | 28.1
[2H]C([2H])(NCc1cc2ccc(CNC(=O)c3cc(=O)n4cc5c(cc4n3)OCO5)cc2[nH]1)C1CCC1 [Example 71, N-((2-(((Cyclobutylmethyl-d2)amino)methyl)-1H-indol-6-yl)methyl)-8-oxo-8H-[1,3]dioxolo[4',5':4,5]pyrido[1,2-a]pyrimidine-6-carboxamide] | < 100 | < 10 |  | 
O=C(NCc1ccc2cc(CNCC3CCC3)[nH]c2c1)c1cn2ncc3c2c(n1)NCCO3 [Example 44, N-((2-(((Cyclobutylmethyl)amino)methyl)-1H-indol-6-yl)methyl)-7,8-dihydro-6H-9-oxa-2,2a,5,6-tetraazabenzo[cd]azulene-4-carboxamide] | 100 to 1000 | 10 to 100 |  | 
CC1(CNCc2cc3ccc(CNC(=O)c4cc(=O)n5cc6c(cc5n4)OCCO6)cc3[nH]2)CCC1 [Example 52, N-((2-((((1-Methylcyclobutyl)methyl)amino)methyl)-1H-indol-6-yl)methyl)-9-oxo-2,3-dihydro-9H-[1,4]dioxino[2',3':4,5]pyrido[1,2-a]pyrimidine-7-carboxamide] | 100 to 1000 | < 10 |  | 
O=C(NCc1ccc2cc(CNCC3CC(F)(F)C3)[nH]c2c1)c1cc(=O)n2cc3c(cc2n1)OCCO3 [Example 24, N-((2-((((3,3-Difluorocyclobutyl)methyl)amino)methyl)-1H-indol-6-yl)methyl)-9-oxo-2,3-dihydro-9H-[1,4]dioxino[2',3':4,5]pyrido[1,2-a]pyrimidine-7-carboxamide] | 100 to 1000 | < 10 | 2180 | 15.3
[2H]C([2H])(NCc1cc2ccc(CNC(=O)c3cc(=O)n4cc5c(cc4n3)OCCO5)cc2[nH]1)C12CC(CO1)C2 [Example 91, N-((2-((((2-Oxabicyclo[2.1.1]hexan-1-yl)methyl-d2)amino)methyl)-1H-indol-6-yl)methyl)-9-oxo-2,3-dihydro-9H-[1,4]dioxino[2',3':4,5]pyrido[1,2-a]pyrimidine-7-carboxamide] | 100 to 1000 | 10 to 100 |  | 
[2H]C([2H])(NCc1cc2ccc(CNC(=O)c3cc(=O)n4cc5c(cc4n3)OCO5)cc2[nH]1)C12CC(CO1)C2 [Example 92, N-((2-((((2-Oxabicyclo[2.1.1]hexan-1-yl)methyl-d2)amino)methyl)-1H-indol-6-yl)methyl)-8-oxo-8H-[1,3]dioxolo[4',5':4,5]pyrido[1,2-a]pyrimidine-6-carboxamide] | 100 to 1000 | 10 to 100 |  | 
[2H]C([2H])(NCc1cc2cc(F)c(CNC(=O)c3cc(=O)n4cc5c(cc4n3)OCO5)cc2[nH]1)C1CCC1 [Example 88, N-((2-(((Cyclobutylmethyl-d2)amino)methyl)-5-fluoro-1H-indol-6-yl)methyl)-8-oxo-8H-[1,3]dioxolo[2',3':4,5]pyrido[1,2-a]pyrimidine-6-carboxamide] | < 100 | < 10 | 1710 | 19.1
O=C(NCc1ccc2cc(CNCC34CC(F)(C3)C4)[nH]c2c1)c1cc(=O)n2cc3c(cc2n1)OCO3 [Example 36, N-((2-((((3-Fluorobicyclo[1.1.1]pentan-1-yl)methyl)amino)methyl)-1H-indol-6-y1)methyl)-8-oxo-8H-[1,3]dioxolo[4',5':4,5]pyrido[1,2-a]pyrimidine-6-carboxamide] | < 100 | < 10 |  | 
O=C(NCc1cc2[nH]c(CNCC3CCC3)cc2s1)c1cc(=O)n2cc3c(cc2n1)OCO3 [Example 32, N-((5-(((Cyclobutylmethyl)amino)methyl)-4H-thieno[3,2-b]pyrrol-2-yl)methyl)-8-oxo-8H-[1,3]dioxolo[4',5':4,5]pyrido[1,2-a]pyrimidine-6-carboxamide] | 100 to 1000 | 10 to 100 |  | 
O=C(NCc1ccc2cc(CNC3CCC(F)(F)C3)[nH]c2c1)c1cc(=O)n2cc3c(cc2n1)OCO3 (stereo not shown) [Example 38, N-((2-(((3,3-Difluorocyclopentyl)amino)methyl)-1H-indol-6-yl)methyl)-8-oxo-8H-[1,3]dioxolo[4',5':4,5]pyrido[1,2-a]pyrimidine-6-carboxamide] | 100 to 1000 | < 10 |  | 
CC1(CNCc2cc3ccc(CNC(=O)c4cc(=O)n5cc6c(cc5n4)OCCO6)cc3[nH]2)CC(F)(F)C1 [Example 54, N-((2-((((3,3-Difluoro-1-methylcyclobutyl)methyl)amino)methyl)-1H-indol-6-yl)methyl)-9-oxo-2,3-dihydro-9H-[1,4]dioxino[2',3':4,5]pyrido[1,2-a]pyrimidine-7-carboxamide] | 100 to 1000 | < 10 |  | 
O=C(NCc1cc2[nH]c(CNCC3CCC3)cc2cc1F)c1cc(=O)n2cc3c(cc2n1)OCO3 [Example 73, N-((2-(((Cyclobutylmethyl)amino)methyl)-5-fluoro-1H-indol-6-yl)methyl)-8-oxo-8H-[1,3]dioxolo[4',5':4,5]pyrido[1,2-a]pyrimidine-6-carboxamide] | 100 to 1000 | < 10 | 1440 | 23
CC1(CNCc2cc3ccc(CNC(=O)c4cc(=O)n5cc6c(cc5n4)OCO6)cc3[nH]2)CC(F)(F)C1 [Example 53, N-((2-((((3,3-Difluoro-1-methylcyclobutyl)methyl)amino)methyl)-1H-indol-6-yl)methyl)-8-oxo-8H-[1,3]dioxolo[4',5':4,5]pyrido[1,2-a]pyrimidine-6-carboxamide] | 100 to 1000 | < 10 |  | 
O=C(NCc1ccc2cc(CNCC3CCC3)[nH]c2c1)c1cc(=O)n2cc3c(cc2n1)OCO3 [Example 25, N-((2-(((Cyclobutylmethyl)amino)methyl)-1H-indol-6-yl)methyl)-8-oxo-8H-[1,3]dioxolo[4',5':4,5]pyrido[1,2-a]pyrimidine-6-carboxamide] | 100 to 1000 | < 10 | 1460 | 22.7
O=C(NCc1ccc2cc(CNCC3CCC3)[nH]c2c1)c1cc(=O)n2cc3c(cc2n1)OCCO3 [Example 20, N-((2-(((Cyclobutylmethyl)amino)methyl)-1H-indol-6-yl)methyl)-9-oxo-2,3-dihydro-9H-[1,4]dioxolo[2',3':4,5]pyrido[1,2-a]pyrimidine-7-carboxamide] | 100 to 1000 | 10 to 100 |  | 
[2H]C([2H])(NCc1cc2cc(F)c(CNC(=O)c3cc(=O)n4cc5c(cc4n3)OCCO5)cc2[nH]1)C12CC(F)(C1)C2 [Example 94, N-((5-fluoro-2-((((3-fluorobicyclo[1.1.1]pentan-1-yl)methyl-d2)amino)methyl)-1H-indol-6-yl)methyl)-9-oxo-2,3-dihydro-9H-[1,4]dioxino[2',3':4,5]pyrido[1,2-a]pyrimidine-7-carboxamide] | < 100 | < 10 | 1120 | 28.5

— patent EP4800016A1, “METTL3 INHIBITOR” (Hangzhou Bangshun Pharmaceutical Co., Ltd., priority 2023, dated 2025)
